Source: US10758534B2 (Vertex Pharmaceuticals Incorporated, priority 2014, dated 2020)

Target: T1, F508del (Homo sapiens, UniProt P13569, DEL508-508)
T1 construct: expressed in transfected cells
Assay: Protocol 2: FRET membrane potential optical assay (VIPR), identification of correction compounds
Format: cell-based
Conditions: F508del CFTR modulator activity; compounds of Table 1; read-out: EC30
In short: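 Single-addition HTS format: F508del-expressing NIH3T3 cells pre-incubated 16 hrs at 37° C. ± compound, with 27° C. culture as positive control. Channel activation by forskolin 10 μM and genistein 20 μM upon switch to gluconate bath, pH 7.4; read-out is FRET-based depolarization signal.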

T1 sequence (P13569 with tags, fused parts or gaps DEL508-508): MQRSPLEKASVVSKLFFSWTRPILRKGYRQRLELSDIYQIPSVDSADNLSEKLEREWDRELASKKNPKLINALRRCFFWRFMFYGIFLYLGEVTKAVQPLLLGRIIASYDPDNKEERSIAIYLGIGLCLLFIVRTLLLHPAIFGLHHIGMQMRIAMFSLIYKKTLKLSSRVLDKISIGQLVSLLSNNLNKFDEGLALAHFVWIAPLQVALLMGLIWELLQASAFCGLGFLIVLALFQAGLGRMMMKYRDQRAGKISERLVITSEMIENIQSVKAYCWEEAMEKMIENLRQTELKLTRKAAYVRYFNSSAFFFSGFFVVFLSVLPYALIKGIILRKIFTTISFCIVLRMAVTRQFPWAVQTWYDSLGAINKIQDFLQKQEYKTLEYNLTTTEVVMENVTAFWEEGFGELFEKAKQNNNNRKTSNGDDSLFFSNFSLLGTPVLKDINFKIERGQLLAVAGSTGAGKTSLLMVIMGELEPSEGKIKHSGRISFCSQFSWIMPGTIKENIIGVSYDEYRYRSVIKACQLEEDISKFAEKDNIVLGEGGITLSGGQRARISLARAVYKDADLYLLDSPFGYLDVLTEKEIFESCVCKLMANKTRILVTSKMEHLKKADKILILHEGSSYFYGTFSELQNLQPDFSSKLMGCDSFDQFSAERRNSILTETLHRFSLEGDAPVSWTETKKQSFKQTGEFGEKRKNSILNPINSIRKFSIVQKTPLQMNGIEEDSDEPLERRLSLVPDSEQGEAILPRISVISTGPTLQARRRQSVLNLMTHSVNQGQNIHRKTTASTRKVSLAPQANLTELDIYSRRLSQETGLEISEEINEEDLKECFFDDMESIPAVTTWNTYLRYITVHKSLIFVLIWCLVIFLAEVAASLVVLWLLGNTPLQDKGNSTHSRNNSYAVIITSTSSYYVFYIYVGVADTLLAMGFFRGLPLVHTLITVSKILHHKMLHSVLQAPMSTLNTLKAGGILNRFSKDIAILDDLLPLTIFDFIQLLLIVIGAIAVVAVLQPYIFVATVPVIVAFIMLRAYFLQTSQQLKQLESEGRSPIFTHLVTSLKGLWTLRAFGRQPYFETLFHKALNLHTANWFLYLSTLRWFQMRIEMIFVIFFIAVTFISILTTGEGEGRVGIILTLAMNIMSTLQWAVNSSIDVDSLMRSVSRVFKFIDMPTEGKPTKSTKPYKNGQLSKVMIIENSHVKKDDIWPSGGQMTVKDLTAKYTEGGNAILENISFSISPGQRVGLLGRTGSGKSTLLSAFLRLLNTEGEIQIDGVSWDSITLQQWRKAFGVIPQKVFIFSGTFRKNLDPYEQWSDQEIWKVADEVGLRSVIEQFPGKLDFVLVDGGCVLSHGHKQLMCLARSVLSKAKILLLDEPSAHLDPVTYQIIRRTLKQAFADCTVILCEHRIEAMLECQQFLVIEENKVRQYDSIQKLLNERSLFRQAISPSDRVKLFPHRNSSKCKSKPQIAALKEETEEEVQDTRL

SMILES	EC30 [µM]
COc1cc(OC)cc(Oc2cccc(S(=O)(=O)NC(=O)c3cccnc3N3CC(C)CC3(C)C)n2)c1 (stereo not shown) [Compound 2293, N—[[6-(3,5-dimethoxyphenoxy)-2-pyridyl]sulfonyl]-2-(2,2,4-trimethylpyrrolidin-1-yl)pyridine-3-carboxamide]	< 3
Cc1cccc(COc2cccc(S(=O)(=O)NC(=O)c3cccnc3N3CC(C)CC3(C)C)n2)n1 (stereo not shown) [Compound 2294, N—[[6-[(6-methyl-2-pyridyl)methoxy]-2-pyridyl]sulfonyl]-2-(2,2,4-trimethylpyrrolidin-1-yl)pyridine-3-carboxamide]	3 to 10
C[C@@H]1CN(c2nc(-c3cc(F)ccc3O)ccc2C(=O)NS(=O)(=O)c2ccc[nH]c2=O)C(C)(C)C1 [Compound 2295, 6-(5-fluoro-2-hydroxy-phenyl)-N-[(2-oxo-1H-pyridin-3-yl)sulfonyl]-2-[(4S)-2,2,4-trimethylpyrrolidin-1-yl]pyridine-3-carboxamide]	3 to 10
C[C@@H]1CN(c2nc(-c3ccc(C(F)(F)F)cc3)ccc2C(=O)NS(=O)(=O)c2cccc(N)n2)C(C)(C)C1 [Compound 2296, N-[(6-amino-2-pyridyl)sulfonyl]-6-[4-(trifluoromethyl)phenyl]-2-[(4S)-2,2,4-trimethylpyrrolidin-1-yl]pyridine-3-carboxamide]	< 3
CC1CN(c2ncccc2C(=O)NS(=O)(=O)c2cccc(N3CCCC(Cc4ccccc4)C3)n2)C(C)(C)C1 (stereo not shown) [Compound 2297, N—[[6-(3-benzyl-1-piperidyl)-2-pyridyl]sulfonyl]-2-(2,2,4-trimethylpyrrolidin-1-yl)pyridine-3-carboxamide]	< 3
CC1CN(c2ncccc2C(=O)NS(=O)(=O)c2cccc(Oc3ccccc3Cl)n2)C(C)(C)C1 (stereo not shown) [Compound 2298, N—[[6-(2-chlorophenoxy)-2-pyridyl]sulfonyl]-2-(2,2,4-trimethylpyrrolidin-1-yl)pyridine-3-carboxamide]	< 3
CC1CN(c2ncccc2C(=O)NS(=O)(=O)c2cccc(OCc3cccc(C#N)c3)n2)C(C)(C)C1 (stereo not shown) [Compound 2299, N—[[6-[(3-cyanophenyl)methoxy]-2-pyridyl]sulfonyl]-2-(2,2,4-trimethylpyrrolidin-1-yl)pyridine-3-carboxamide]	< 3
Cc1cccc(-c2ccc(C(=O)NS(=O)(=O)c3ccc[nH]c3=O)c(N3C[C@@H](C)CC3(C)C)n2)c1O [Compound 2300, 6-(2-hydroxy-3-methyl-phenyl)-N-[(2-oxo-1H-pyridin-3-yl)sulfonyl]-2-[(4S)-2,2,4-trimethylpyrrolidin-1-yl]pyridine-3-carboxamide]	3 to 10
CCOc1cc(C)cc(-c2ccc(C(=O)NS(=O)(=O)c3cc[nH]n3)c(Oc3c(C)cc(C)cc3C)n2)n1 [Compound 2301, 6-(6-ethoxy-4-methyl-2-pyridyl)-N-(1H-pyrazol-3-ylsulfonyl)-2-(2,4,6-trimethylphenoxy)pyridine-3-carboxamide]	< 3
COc1ccc(-c2ccc(C(=O)NS(=O)(=O)c3cccnc3N)c(N3C[C@@H](C)CC3(C)C)n2)c(F)c1F [Compound 2302, N-[(2-amino-3-pyridyl)sulfonyl]-6-(2,3-difluoro-4-methoxy-phenyl)-2-[(4S)-2,2,4-trimethylpyrrolidin-1-yl]pyridine-3-carboxamide]	< 3
CC(C)Cn1ccc(-c2cnc(N3CC(C)CC3(C)C)c(C(=O)NS(=O)(=O)c3cccc(N)n3)c2)n1 (stereo not shown) [Compound 2303, N-[(6-amino-2-pyridyl)sulfonyl]-5-(1-isobutylpyrazol-3-yl)-2-(2,2,4-trimethylpyrrolidin-1-yl)pyridine-3-carboxamide]	3 to 10
CC1CN(c2ncc(-c3ccc(C#N)cc3)cc2C(=O)NS(=O)(=O)c2cccc(N)n2)C(C)(C)C1 (stereo not shown) [Compound 2304, N-[(6-amino-2-pyridyl)sulfonyl]-5-(4-cyanophenyl)-2-(2,2,4-trimethylpyrrolidin-1-yl)pyridine-3-carboxamide]	< 3
CCC(CC)CNc1cccc(S(=O)(=O)NC(=O)c2cccnc2N2CC(C)CC2(C)C)n1 (stereo not shown) [Compound 2305, N—[[6-(2-ethylbutylamino)-2-pyridyl]sulfonyl]-2-(2,2,4-trimethylpyrrolidin-1-yl)pyridine-3-carboxamide]	< 3
Cc1cc(-c2ccc(C(=O)NS(=O)(=O)c3cccc(N)n3)c(N3C[C@@H](C)CC3(C)C)n2)cc(OC(C)C)n1 [Compound 2306, N-[(6-amino-2-pyridyl)sulfonyl]-6-(2-isopropoxy-6-methyl-4-pyridyl)-2-[(4S)-2,2,4-trimethylpyrrolidin-1-yl]pyridine-3-carboxamide]	< 3
CCCCN(C)c1cccc(S(=O)(=O)NC(=O)c2cccnc2N2CC(C)CC2(C)C)n1 (stereo not shown) [Compound 2307, N—[[6-[butyl(methyl)amino]-2-pyridyl]sulfonyl]-2-(2,2,4-trimethylpyrrolidin-1-yl)pyridine-3-carboxamide]	< 3
CC1CN(c2ncccc2C(=O)NS(=O)(=O)c2cccc(OCc3ccco3)n2)C(C)(C)C1 (stereo not shown) [Compound 2308, N—[[6-(2-furylmethoxy)-2-pyridyl]sulfonyl]-2-(2,2,4-trimethylpyrrolidin-1-yl)pyridine-3-carboxamide]	< 3

SMILES	EC30 [µM]
COc1cccc(OC)c1Oc1cccc(S(=O)(=O)NC(=O)c2cccnc2N2CC(C)CC2(C)C)n1 (stereo not shown) [Compound 2309, N—[[6-(2,6-dimethoxyphenoxy)-2-pyridyl]sulfonyl]-2-(2,2,4-trimethylpyrrolidin-1-yl)pyridine-3-carboxamide]	< 3
COc1ccccc1CNc1cccc(S(=O)(=O)NC(=O)c2cccnc2N2CC(C)CC2(C)C)n1 (stereo not shown) [Compound 2310, N—[[6-[(2-methoxyphenyl)methylamino]-2-pyridyl]sulfonyl]-2-(2,2,4-trimethylpyrrolidin-1-yl)pyridine-3-carboxamide]	< 3
C[C@@H]1CN(c2nc(C3CCCOC3)ccc2C(=O)NS(=O)(=O)c2cccnc2N)C(C)(C)C1 (stereo partly drawn) [Compound 2311, N-[(2-amino-3-pyridyl)sulfonyl]-6-tetrahydropyran-3-yl-2-[(4S)-2,2,4-trimethylpyrrolidin-1-yl]pyridine-3-carboxamide]	< 3
CC1CN(c2ncc(-c3ccccc3Cl)cc2C(=O)NS(=O)(=O)c2cccc(N)n2)C(C)(C)C1 (stereo not shown) [Compound 2312, N-[(6-amino-2-pyridyl)sulfonyl]-5-(2-chlorophenyl)-2-(2,2,4-trimethylpyrrolidin-1-yl)pyridine-3-carboxamide]	< 3
Cc1cc(OC2CCCC2)cc(-c2cnc(N3CC(C)CC3(C)C)c(C(=O)NS(=O)(=O)c3cccc(N)n3)c2)c1 (stereo not shown) [Compound 2313, N-[(6-amino-2-pyridyl)sulfonyl]-5-[3-(cyclopentoxy)-5-methyl-phenyl]-2-(2,2,4-trimethylpyrrolidin-1-yl)pyridine-3-carboxamide]	< 3
CC1CN(c2ncccc2C(=O)NS(=O)(=O)c2cccc(Oc3ccc(N)cc3)n2)C(C)(C)C1 (stereo not shown) [Compound 2314, N—[[6-(4-aminophenoxy)-2-pyridyl]sulfonyl]-2-(2,2,4-trimethylpyrrolidin-1-yl)pyridine-3-carboxamide]	3 to 10
C[C@@H]1CN(c2nc([C@H]3CC[C@@H](C(F)(F)F)CC3)ccc2C(=O)NS(=O)(=O)c2ccc[nH]c2=O)C(C)(C)C1 [Compound 2315, N-[(2-oxo-1H-pyridin-3-yl)sulfonyl]-6-[4-(trifluoromethyl)cyclohexyl]-2-[(4S)-2,2,4-trimethylpyrrolidin-1-yl]pyridine-3-carboxamide]	< 3
CC1CN(c2ncccc2C(=O)NS(=O)(=O)c2cccc(Nc3ccc(F)c(C#N)c3)n2)C(C)(C)C1 (stereo not shown) [Compound 2316, N—[[6-(3-cyano-4-fluoro-anilino)-2-pyridyl]sulfonyl]-2-(2,2,4-trimethylpyrrolidin-1-yl)pyridine-3-carboxamide]	< 3
CC1CN(c2ncccc2C(=O)NS(=O)(=O)c2cccc(OC3CC=CC3)n2)C(C)(C)C1 (stereo not shown) [Compound 2317, N-[(6-cyclopent-3-en-1-yloxy-2-pyridyl)sulfonyl]-2-(2,2,4-trimethylpyrrolidin-1-yl)pyridine-3-carboxamide]	< 3
CC1CN(c2ncccc2C(=O)NS(=O)(=O)c2cccc(N[C@H](C)C(C)C)n2)C(C)(C)C1 (stereo partly drawn) [Compound 2318, N—[[6-[[(1R)-1,2-dimethylpropyl]amino]-2-pyridyl]sulfonyl]-2-(2,2,4-trimethylpyrrolidin-1-yl)pyridine-3-carboxamide]	< 3
C[C@@H]1CN(c2nc(-c3ccc(N(C)C)nc3)ccc2C(=O)NS(=O)(=O)c2cccnc2N)C(C)(C)C1 [Compound 2319, N-[(2-amino-3-pyridyl)sulfonyl]-6-[6-(dimethylamino)-3-pyridyl]-2-[(4S)-2,2,4-trimethylpyrrolidin-1-yl]pyridine-3-carboxamide]	3 to 10
Cc1cccc(Oc2cccc(S(=O)(=O)NC(=O)c3cccnc3N3CC(C)CC3(C)C)n2)c1 (stereo not shown) [Compound 2320, N—[[6-(3-methylphenoxy)-2-pyridyl]sulfonyl]-2-(2,2,4-trimethylpyrrolidin-1-yl)pyridine-3-carboxamide]	< 3
CC1CN(c2ncccc2C(=O)NS(=O)(=O)c2cccc(N3Cc4ccccc4C[C@H]3C(=O)O)n2)C(C)(C)C1 (stereo partly drawn) [Compound 2321, (3S)-2-[6-[[2-(2,2,4-trimethylpyrrolidin-1-yl)pyridine-3-carbonyl]sulfamoyl]-2-pyridyl]-3,4-dihydro-1H-isoquinoline-3-carboxylic acid]	3 to 10
Cc1cc(-c2cnc(N3CC(C)CC3(C)C)c(C(=O)NS(=O)(=O)c3cccc(N)n3)c2)cc(C(C)(C)C)c1 (stereo not shown) [Compound 2322, N-[(6-amino-2-pyridyl)sulfonyl]-5-(3-tert-butyl-5-methyl-phenyl)-2-(2,2,4-trimethylpyrrolidin-1-yl)pyridine-3-carboxamide]	< 3
CC(C)COc1cc(F)cc(-c2ccc(C(=O)NS(=O)(=O)c3cccc(N)n3)c(N3CCC(O)CC3)n2)c1 [Compound 2323, N-[(6-amino-2-pyridyl)sulfonyl]-6-(3-fluoro-5-isobutoxy-phenyl)-2-(4-hydroxy-1-piperidyl)pyridine-3-carboxamide]	3 to 10
